Test results as given in article PMC3439991 (Thrombosis, 2012).
Read-outs that look alike come from different tables or passages of the source.

Assays:
[1] = cited from earlier work
[2] = Cumulative urine excretion of argatroban, by ecarin clotting time (ECT); format: in vivo; settings: pigs, s.c., similar for both formulations
Method: The blood samples were drawn into plastic tubes containing 3.13% sodium citrate before dosing and at definite time intervals thereafter. Then, blood samples were centrifuged (1000 g for 10 min) to obtain citrated plasma. Urine samples were also collected using a bladder catheter and frozen at −20°C until further analysis.
Furthermore, antithrombin activity in plasma samples was also determined by ecarin chromogenic assay (ECA).

[3] = pig, in vivo, sc
Source text: Furthermore, systemic effects as bleeding were investigated by examination of all major tissues and organs.

[4] = cited from earlier work; remark: listed apart in the source
[5] = after subcutaneous administration

Row | Molecule | solubility in water [1] | administered antithrombotic active amount recovered in urine (cumulative) [2] | Local bleeding, toxic reactions, and other side effects [3] | half-life ([4]; administered intravenously) | half-life [4, 5] | period of stable plasma concentrations and antithrombotic activity [4, 5]
1 | CC1CNc2c(cccc2S(=O)(=O)N[C@@H](CCCNC(=N)N)C(=O)N2CC[C@@H](C)C[C@@H]2C(=O)O)C1 (stereo partly drawn) [Argatroban] | about 1 mg·mL^−1 | 15–20% | not observed |  |  | 
2 | hirudin |  |  |  | about 60 min | 2 h | approximately 12 hours
